Experimental data published in patent US20070004660A1, “Synergistic Modulation of Flt3 Kinase Using Alkylquinolines and Alkylquinazolines” (priority 2005, published 2007).

What was measured:
[1] = tested on: patients with relapsed and refractory AML; conditions: cited from earlier work
[2] = tested on: MV4-11 AML cells; assay: Cell proliferation assay, single agents and FTI/FLT3 inhibitor combinations, MV4-11; assay type: cell-based, human
Procedure: Dose responses for the individual compounds alone were determined for each cell line using a standard 72-hour cell proliferation assay (see FIGS. 6.1-6.8). The standard chemotherapeutic agent Cytarabine was used as a control cytotoxic agent in all experiments. […] The FLT3 inhibitors, Compounds A, B, C, D, E, F G and H individually have good potency (sub-micromolar) for the inhibition of FLT3 driven proliferation (compared to the first line cytotoxic agent Cytarabine and Tipifarnib) in cells that depend on FLT3 for growth. Each of these chemically distinct compounds alone has potential for the treatment of disorders related to FLT3, such as FLT3 positive AML. […] The FLT3 inhibitors tested had no effect on THP-1 proliferation. […] (See FIGS. 10.1-10.8 and Tables 1-3, hereafter.)
To statistically evaluate the synergy of a FLT3 inhibitor and an FTI in FLT3 dependent cell lines, dosing combinations were evaluated by the method of Chou and Talalay. See Chou T C, Talalay P. (1984) “Quantitative analysis of dose-effect relationships: the combined effects of multiple drugs or enzyme inhibitors.” Adv Enzyme Regul. 22:27-55. […] Using this method, multiple FTI and FLT3 combinations were evaluated. […]
Cell proliferation assay for MV4-11, Baf3-ITD, Baf3-FLT3 and THP-1 cells. […] Total cell growth is quantified as the difference in luminescent counts (relative light units, RLU) of cell number at Day 0 compared to total cell number at Day 3 (72 hours of growth and/or compound treatment). One hundred percent inhibition of growth is defined as an RLU equivalent to the Day 0 reading. […]
Combination Index Analysis. To determine growth inhibition synergy of a FTI and FLT3 inhibitor combination based on the method of Chou and Talalay (Chou and Talalay. See Chou T C, Talalay P. (1984) “Quantitative analysis of dose-effect relationships: the combined effects of multiple drugs or enzyme inhibitors.” Adv Enzyme Regul. 22:27-55. ), fixed ratio combination dosing with isobolar statistical analysis was performed. […]

[3] = multicenter Phase II trial, relapsed AML

For `Cn1cncc1C(N)(c1ccc(Cl)cc1)c1ccc2c(c1)c(-c1cccc(Cl)c1)cc(=O)n2C` (single isomer, unassigned; (+)) [Tipifarnib, (+)-6-[amino(4-chlorophenyl)(1-methyl-1H-imidazol-5-yl)methyl]-4-(3-chlorophenyl)-1-methyl-2(1H)-quinolinone], the “>50% reduction in bone marrow blasts” value [1, 3] is given as 31 of 50, the “complete responses (bone marrow blasts <5%)” value [1, 3] is given as 17 of 50 and the response rate ([1]; patients with relapsed and refractory AML) is given as about 30%. For the same compound, the “potency for inhibition of proliferation, single agent” value ([2]; 72-hour assay, cells that depend on FLT3 for growth (Tipifarnib: depending on the cell type)) was “high nanomolar to high picomolar range” and the “increase in potency of Tipifarnib” value ([2]; with single sub-IC50 dose of FLT3 inhibitor Compound A, 50 nM) was “more than 3 fold”.
